Results: patent US8440674B2, “Substituted pyrimidine compounds as RAF inhibitors and methods of use” (Amgen Inc., priority 2005, dated 2013)
Read-outs that look alike come from different tables or passages of the source.

Legend:
[1] = system: A375 cells, a human melanoma cell line having the V600E mutant Braf; assay: B-Raf cell-based assay (ratio of phospho-ERK1/2 to total ERK1/2); settings: A-375, 1 h, P-ERK/total ERK, 60 minute incubation, read-out: IC50 for the inhibition of B-raf as measured by the cell-based assay
Protocol: A cell-based assay was optimized to assay the ability of compounds to inhibit Braf activity in a whole cell context. […] The cell-based assay quantifies the ratio of phospho-ERK1/2 to total ERK1/2 and can thereby assay the cellular inhibition of Braf kinase activity.
A375 cells are plated into 96 well plates and grown to confluence. The cells are then changed into starve media (DMEM/0.1% BSA) for 60 minutes. Compounds in DMSO dose curves are then diluted in starve media and added to cells. […] After a 60 minute incubation the cells are fixed for 20 minutes at room temperature in 4% formaldehyde with 0.1%Triton X-100, protease and phosphatase inhibitors in PBS. The cells are washed four times in PBS then blocked for 60 minutes using a one to one mix of Odyssey blocking buffer (Li-Cor Biosciences, Inc) and PBS. Primary antibodies (rabbit anti-phospho p42/p44 MAPK (P-ERK1/2) from Cell Signaling Technology and mouse anti-ERK2 from Santa Cruz Biotechnology) are diluted in blocking buffer, added to the cells and incubated overnight at 4° C. The cells are then washed four times in PBS/0.1% Tween-20. Secondary antibodies (anti-mouse IRDye 800CW from Rockland, Inc and anti-rabbit AlexaFlour680 from Molecular Probes) are diluted in blocking buffer/0.5% Tween and incubated on cells for 60 minutes. After 4 washes in PBS/0.1% Tween-20 the microplate is scanned on an Odyssey Infrared Imager (Li-Cor Bioscience) which can read the signal given by the two secondary antibodies on their respective channels. The ratio of P-ERK/total ERK is determined and IC50s generated using Excel-XLfit software.

[2] = target: recombinant HuBraf V600E (Homo sapiens, UniProt P15056, V600E); assay: B-raf Homogenous Time Resolved Fluorescent (HTRF) kinase assay; type: biochemical; settings: substrate MEK1, 10 uM ATP; threshold lists; read-out: IC50 for the inhibition of B-raf as measured by the HTRF assay
Protocol: A Homogeneous Time Resolved Fluorescence (HTRF) kinase assay was established to assay the ability of compounds to inhibit human mutant Braf kinase activity on the substrate MEK1. […] The final concentration of the kinase reaction buffer is 50 mM Tris-HCL pH 7.5, 10 mM MgCl2, 0.5% glucose, 0.5 mM DTT, 0.01% BSA.
The detection reaction proceeds for one hour and is read on a RubyStar (BMG Labtech) counter. IC50s for the test compounds are generated using Excel-XLfit software.

recombinant HuBraf V600E, sequence (P15056 whole entry V600E): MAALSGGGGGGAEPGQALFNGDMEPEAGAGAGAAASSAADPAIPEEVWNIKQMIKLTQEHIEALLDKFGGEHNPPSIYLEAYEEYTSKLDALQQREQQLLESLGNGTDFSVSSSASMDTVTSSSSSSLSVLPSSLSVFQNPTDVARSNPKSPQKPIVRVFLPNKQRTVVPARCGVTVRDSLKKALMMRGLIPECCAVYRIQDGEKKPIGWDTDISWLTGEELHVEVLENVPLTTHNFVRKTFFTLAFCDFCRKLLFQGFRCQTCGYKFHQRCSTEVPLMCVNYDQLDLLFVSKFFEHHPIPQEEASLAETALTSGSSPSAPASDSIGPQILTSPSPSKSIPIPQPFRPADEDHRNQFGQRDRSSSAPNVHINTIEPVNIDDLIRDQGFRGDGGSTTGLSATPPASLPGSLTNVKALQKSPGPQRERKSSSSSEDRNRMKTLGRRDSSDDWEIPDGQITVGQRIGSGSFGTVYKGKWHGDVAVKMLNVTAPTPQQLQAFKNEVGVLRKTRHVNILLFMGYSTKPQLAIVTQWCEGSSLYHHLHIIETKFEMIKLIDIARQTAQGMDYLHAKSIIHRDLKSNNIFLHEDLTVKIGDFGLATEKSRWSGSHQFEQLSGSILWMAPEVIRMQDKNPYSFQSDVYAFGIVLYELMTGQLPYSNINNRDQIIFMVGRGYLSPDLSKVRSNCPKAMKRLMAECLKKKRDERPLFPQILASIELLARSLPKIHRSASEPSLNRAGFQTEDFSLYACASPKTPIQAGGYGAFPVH

| Compound | IC50 ([1]; threshold list) [nM] | IC50 [2] [nM] | IC50 ([1]; threshold lists) [nM] |
| --- | --- | --- | --- |
| CNc1ncc2cc(-c3c(C)ccc4c(Nc5ccc(OC)c(C(F)(F)F)c5)nsc34)ccc2n1 [Example 399, 6-(3-(4-methoxy-3-(trifluoromethyl)phenylamino)-6-methylbenzo[d]isothiazol-7-yl)-N-methylquinazolin-2-amine] | ≤ 500 | ≤ 250 |  |
| CNc1ncc2cc(-c3c(C)ccc4c(Nc5cc(C(F)(F)F)ccn5)nccc34)ccc2n1 [Example 34, N-methyl-6-(6-methyl-1-((4-(trifluoromethyl)-2-pyridinyl)amino)-5-isoquinolinyl)-2-quinazolinamine] | ≤ 500 | ≤ 250 |  |
| Cc1ccc2c(Nc3ccc4c(c3)NCC4(C)C)nccc2c1Nc1ncccc1-c1ccncn1 [Example 80, N^1-(3,3-dimethyl-2,3-dihydro-1H-indol-6-yl)-6-methyl-N^5-(3-(4-pyrimidinyl)-2-pyridinyl)-1,5-isoquinolinediamine] | ≤ 500 | ≤ 250 |  |
| Cc1ccc2c(Nc3cccc(N(C)C)c3)nccc2c1Nc1ncccc1-c1ccncn1 [Example 11, N^1-(3-(dimethylamino)phenyl)-6-methyl-N^5-(3-(4-pyrimidinyl)-2-pyridinyl)-1,5-isoquinolinediamine] | ≤ 500 | ≤ 250 |  |
| CNc1ncc2cc(-c3c(C)ccc4c(Nc5cc(C(C)(C)C)on5)nccc34)ccc2n1 [Example 27, 6-(1-((5-(1,1-dimethylethyl)-3-isoxazolyl)amino)-6-methyl-5-isoquinolinyl)-N-methyl-2-quinazolinamine] | ≤ 500 | ≤ 250 |  |
| CNc1ncc2cc(-c3c(C)ccc4c(Nc5cccc(OC(F)(F)F)c5)ncnc34)ccc2n1 [Example 50, N^2,7′-dimethyl-N^4′-(3-((trifluoromethyl)oxy)phenyl)-6,8′-biquinazoline-2,4′-diamine] | ≤ 500 | ≤ 250 |  |
| CNc1nccc2c(Nc3ncccc3-c3ccncn3)c(C)ccc12 [Example 17, N^1-6-dimethyl-N^5-(3-(4-pyrimidinyl)-2-pyridinyl)-1,5-isoquinolinediamine] | ≤ 500 | ≤ 250 |  |
| COc1ccc(Nc2nccc3c(Nc4ncccc4-c4ccncn4)c(C)ccc23)cc1C(F)(F)F [Example 19, 6-methyl-N^1-(4-(methyloxy)-3-(trifluoromethyl)phenyl)-N^5-(3-(4-pyrimidinyl)-2-pyridinyl)-1,5-isoquinolinediamine] | ≤ 500 | ≤ 250 |  |
| CNc1ncc2cc(-c3c(C)ccc4c(Nc5cncc(C(F)(F)F)c5)nccc34)ccc2n1 [Example 41, N-methyl-6-(6-methyl-1-((5-(trifluoromethyl)-3-pyridinyl)amino)-5-isoquinolinyl)-2-quinazolinamine] | ≤ 500 | ≤ 250 |  |
| CNc1ncc2cc(-c3c(C)sc4c(Nc5cccc(C(F)(F)F)c5)nccc34)ccc2n1 [Example 393, N-methyl-6-(2-methyl-7-(3-(trifluoromethyl)phenylamino)thieno[2,3-c]pyridin-3-yl)quinazolin-2-amine] |  | ≤ 250 | ≤ 5000 |
| CNc1ncc2cc(-c3c(C)ccc4c(Nc5ccc(OC)c(C(F)(F)F)c5)ncnc34)ccc2n1 [Example 52, N^2,7′-dimethyl-N^4′-(4-(methyloxy)-3-(trifluoromethyl)phenyl)-6,8′-biquinazoline-2,4′-diamine] | ≤ 500 | ≤ 250 |  |
| CNc1ncc2cc(-c3c(C)ccc4c(Nc5ccc(Cl)c(C(F)(F)F)c5)ncnc34)ccc2n1 [Example 55, N^4′-(4-chloro-3-(trifluoromethyl)phenyl)-N^2,7′-dimethyl-6,8′-biquinazoline-2,4′-diamine] | ≤ 500 | ≤ 250 |  |
| CNc1ncc2cc(-c3c(C)ccc4c(Nc5ccc6c(c5)N(C(C)=O)CC6(C)C)ncnc34)ccc2n1 [Example 54, N^4′-(1-acetyl-3,3-dimethyl-2,3-dihydro-1H-indol-6-yl)-N^2,7′-dimethyl-6,8′-biquinazoline-2,4′-diamine] | ≤ 500 | ≤ 250 |  |
| CNc1ncc2cc(-c3c(C)ccc4c(Nc5ccc6c(c5)CCC6)nccc34)ccc2n1 [Example 38, 6-(1-(2,3-dihydro-1H-inden-5-ylamino)-6-methyl-5-isoquinolinyl)-N-methyl-2-quinazolinamine] | ≤ 500 | ≤ 250 |  |
| CNc1ncc2cc(-c3c(C)ccc4c(Nc5ccc6c(c5)NCC6(C)C)nccc34)ccc2n1 [Example 79, 6-(1-((3,3-dimethyl-2,3-dihydro-1H-indol-6-yl)amino)-6-methyl-5-isoquinolinyl)-N-methyl-2-quinazolinamine] | ≤ 500 | ≤ 250 |  |
